Test results from PubChem BioAssay AID1259407 (Chemical Carcinogenesis Research Information System (CCRIS), 2018).
Calls of active or inactive are those of the source. How the calls were made is not given here.

System: CCRIS mutagenicity, Ames/micronucleus/aberration tests
Assay: CCRIS mutagenicity studies
[1] = Test System: AMES SALMONELLA TYPHIMURIUM, Strain/Indicator: TA98, Metabolic Activation: HAMSTER, LIVER, S-9, AROCLOR 1254 (10%), Method: PREINCUBATION
[2] = Test System: AMES SALMONELLA TYPHIMURIUM, Strain/Indicator: TA98, Metabolic Activation: NONE, Method: PREINCUBATION
[3] = Test System: AMES SALMONELLA TYPHIMURIUM, Strain/Indicator: TA98, Metabolic Activation: NONE, Method: STANDARD PLATE
[4] = Test System: AMES SALMONELLA TYPHIMURIUM, Strain/Indicator: TA98, Metabolic Activation: RAT, LIVER, S-9, AROCLOR 1254 (10%), Method: PREINCUBATION
[5] = Test System: AMES SALMONELLA TYPHIMURIUM, Strain/Indicator: TA98, Metabolic Activation: RAT, LIVER, S-9, AROCLOR 1254, Method: STANDARD PLATE
[6] = Test System: AMES SALMONELLA TYPHIMURIUM, Strain/Indicator: TA100, Metabolic Activation: HAMSTER, LIVER, S-9, AROCLOR 1254 (10%), Method: PREINCUBATION
[7] = Test System: AMES SALMONELLA TYPHIMURIUM, Strain/Indicator: TA100, Metabolic Activation: NONE, Method: PREINCUBATION
[8] = Test System: AMES SALMONELLA TYPHIMURIUM, Strain/Indicator: TA100, Metabolic Activation: NONE, Method: STANDARD PLATE
[9] = Test System: AMES SALMONELLA TYPHIMURIUM, Strain/Indicator: TA100, Metabolic Activation: RAT, LIVER, S-9, AROCLOR 1254 (10%), Method: PREINCUBATION
[10] = Test System: AMES SALMONELLA TYPHIMURIUM, Strain/Indicator: TA100, Metabolic Activation: RAT, LIVER, S-9, AROCLOR 1254, Method: STANDARD PLATE
[11] = Test System: AMES SALMONELLA TYPHIMURIUM, Strain/Indicator: TA1535, Metabolic Activation: HAMSTER, LIVER, S-9, AROCLOR 1254 (10%), Method: PREINCUBATION
[12] = Test System: AMES SALMONELLA TYPHIMURIUM, Strain/Indicator: TA1535, Metabolic Activation: NONE, Method: PREINCUBATION
[13] = Test System: AMES SALMONELLA TYPHIMURIUM, Strain/Indicator: TA1535, Metabolic Activation: RAT, LIVER, S-9, AROCLOR 1254 (10%), Method: PREINCUBATION
[14] = Test System: AMES SALMONELLA TYPHIMURIUM, Strain/Indicator: TA1537, Metabolic Activation: NONE, Method: PREINCUBATION

## FC(F)(F)c1cccc(Cl)c1
Test System: AMES SALMONELLA TYPHIMURIUM, Strain/Indicator: TA97, Metabolic Activation: HAMSTER, LIVER, S-9, AROCLOR 1254 (10%), Method: PREINCUBATION
  mutagenic call: inactive; negative
Test System: AMES SALMONELLA TYPHIMURIUM, Strain/Indicator: TA97, Metabolic Activation: HAMSTER, LIVER, S-9, AROCLOR 1254 (30%), Method: PREINCUBATION
  mutagenic call: inactive; negative
Test System: AMES SALMONELLA TYPHIMURIUM, Strain/Indicator: TA97, Metabolic Activation: NONE, Method: PREINCUBATION
  mutagenic call: inactive; negative
Test System: AMES SALMONELLA TYPHIMURIUM, Strain/Indicator: TA97, Metabolic Activation: RAT, LIVER, S-9, AROCLOR 1254 (10%), Method: PREINCUBATION
  mutagenic call: inactive; negative
Test System: AMES SALMONELLA TYPHIMURIUM, Strain/Indicator: TA97, Metabolic Activation: RAT, LIVER, S-9, AROCLOR 1254 (30%), Method: PREINCUBATION
  mutagenic call: inactive; negative
[1]
  mutagenic call: inactive; negative
Test System: AMES SALMONELLA TYPHIMURIUM, Strain/Indicator: TA98, Metabolic Activation: HAMSTER, LIVER, S-9, AROCLOR 1254 (30%), Method: PREINCUBATION
  mutagenic call: inactive; negative
[2]
  mutagenic call: inactive; negative
[3]
  mutagenic call: inactive; negative
[4]
  mutagenic call: inactive; negative
Test System: AMES SALMONELLA TYPHIMURIUM, Strain/Indicator: TA98, Metabolic Activation: RAT, LIVER, S-9, AROCLOR 1254 (30%), Method: PREINCUBATION
  mutagenic call: inactive; negative
[5]
  mutagenic call: inactive; negative
[6]
  mutagenic call: inactive; negative
Test System: AMES SALMONELLA TYPHIMURIUM, Strain/Indicator: TA100, Metabolic Activation: HAMSTER, LIVER, S-9, AROCLOR 1254 (30%), Method: PREINCUBATION
  mutagenic call: inactive; negative
[7]
  mutagenic call: inactive; negative
[8]
  mutagenic call: inactive; negative
[9]
  mutagenic call: inactive; negative
Test System: AMES SALMONELLA TYPHIMURIUM, Strain/Indicator: TA100, Metabolic Activation: RAT, LIVER, S-9, AROCLOR 1254 (30%), Method: PREINCUBATION
  mutagenic call: inactive; negative
[10]
  mutagenic call: inactive; negative
[11]
  mutagenic call: inactive; negative
Test System: AMES SALMONELLA TYPHIMURIUM, Strain/Indicator: TA1535, Metabolic Activation: HAMSTER, LIVER, S-9, AROCLOR 1254 (30%), Method: PREINCUBATION
  mutagenic call: inactive; negative
[12]
  mutagenic call: inactive; negative
Test System: AMES SALMONELLA TYPHIMURIUM, Strain/Indicator: TA1535, Metabolic Activation: NONE, Method: STANDARD PLATE
  mutagenic call: inactive; negative
[13]
  mutagenic call: inactive; negative
Test System: AMES SALMONELLA TYPHIMURIUM, Strain/Indicator: TA1535, Metabolic Activation: RAT, LIVER, S-9, AROCLOR 1254 (30%), Method: PREINCUBATION
  mutagenic call: inactive; negative
Test System: AMES SALMONELLA TYPHIMURIUM, Strain/Indicator: TA1535, Metabolic Activation: RAT, LIVER, S-9, AROCLOR 1254, Method: STANDARD PLATE
  mutagenic call: inactive; negative
Test System: AMES SALMONELLA TYPHIMURIUM, Strain/Indicator: TA1537, Metabolic Activation: HAMSTER, LIVER, S-9, AROCLOR 1254 (30%), Method: PREINCUBATION
  mutagenic call: inactive; negative
[14]
  mutagenic call: inactive; negative
Test System: AMES SALMONELLA TYPHIMURIUM, Strain/Indicator: TA1537, Metabolic Activation: NONE, Method: STANDARD PLATE
  mutagenic call: inactive; negative
Test System: AMES SALMONELLA TYPHIMURIUM, Strain/Indicator: TA1537, Metabolic Activation: RAT, LIVER, S-9, AROCLOR 1254 (30%), Method: PREINCUBATION
  mutagenic call: inactive; negative
Test System: AMES SALMONELLA TYPHIMURIUM, Strain/Indicator: TA1537, Metabolic Activation: RAT, LIVER, S-9, AROCLOR 1254, Method: STANDARD PLATE
  mutagenic call: inactive; negative
Test System: AMES SALMONELLA TYPHIMURIUM, Strain/Indicator: TA1538, Metabolic Activation: NONE, Method: STANDARD PLATE
  mutagenic call: inactive; negative
Test System: AMES SALMONELLA TYPHIMURIUM, Strain/Indicator: TA1538, Metabolic Activation: RAT, LIVER, S-9, AROCLOR 1254, Method: STANDARD PLATE
  mutagenic call: inactive; negative

## O=C(O)[C@H]1OC(Oc2ccc3cc4ccc5cccc6ccc(c3c2)c4c56)[C@H](O)[C@@H](O)[C@@H]1O (stereo not given in full)
[2]
  mutagenic call: inactive; negative
Test System: AMES SALMONELLA TYPHIMURIUM, Strain/Indicator: TA98, Metabolic Activation: RAT, LUNG, S-9, Method: PREINCUBATION
  mutagenic call: inactive; negative

## NCCc1cnc[nH]1
Test System: AMES SALMONELLA TYPHIMURIUM, Strain/Indicator: TA97, Metabolic Activation: NONE, Method: STANDARD PLATE
  mutagenic call: inactive; negative
Test System: AMES SALMONELLA TYPHIMURIUM, Strain/Indicator: TA97, Metabolic Activation: RAT, LIVER, S-9, AROCLOR 1254, Method: STANDARD PLATE
  mutagenic call: inactive; negative
[3]
  mutagenic call: inactive; negative
[5]
  mutagenic call: inactive; negative
[8]
  mutagenic call: inactive; negative
[10]
  mutagenic call: inactive; negative
Test System: AMES SALMONELLA TYPHIMURIUM, Strain/Indicator: TA102, Metabolic Activation: NONE, Method: STANDARD PLATE
  mutagenic call: inactive; negative
Test System: AMES SALMONELLA TYPHIMURIUM, Strain/Indicator: TA102, Metabolic Activation: RAT, LIVER, S-9, AROCLOR 1254, Method: STANDARD PLATE
  mutagenic call: inactive; negative
Test System: UDS RAT HEPATOCYTES, Strain/Indicator: THY INCORP, Metabolic Activation: NONE, Method: AUTORADIOGRAPHY
  mutagenic call: inactive; negative

## OCC(Cl)(Cl)Cl
Test System: AMES SALMONELLA TYPHIMURIUM, Strain/Indicator: TA100, Metabolic Activation: NONE, Method: BAG VAPORIZATION
  mutagenic call: inactive; negative
Test System: AMES SALMONELLA TYPHIMURIUM, Strain/Indicator: TA100, Metabolic Activation: RAT, LIVER, S-9, AROCLOR 1254, Method: BAG VAPORIZATION
  mutagenic call: inactive; negative

## ClCc1ccccc1CCl
[3]
  mutagenic call: inactive; negative

## COP(=S)(OC)SCn1nnc2ccccc2c1=O
End Point: In vitro Chromosomal aberrations, Test System: Human lymphocytes, Metabolic Activation: None
  mutagenic call: inactive; negative; lymphocytes from 1 male and 1 female; azinphos-methyl purity 92.9%
End Point: In vitro Chromosomal aberrations, Test System: Human lymphocytes, Metabolic Activation: Rat, liver, S-9
  mutagenic call: active; positive (structural and ploidy); lymphocytes from 1 male and 1 female; azinphos
[1]
  mutagenic call: inactive; negative
[2]
  mutagenic call: inactive; negative
[4]
  mutagenic call: active; positive
[6]
  mutagenic call: inactive; negative
[7]
  mutagenic call: inactive; negative
[9]
  mutagenic call: inactive; negative
[11]
  mutagenic call: inactive; negative
[12]
  mutagenic call: inactive; negative
[13]
  mutagenic call: inactive; negative
Test System: AMES SALMONELLA TYPHIMURIUM, Strain/Indicator: TA1537, Metabolic Activation: HAMSTER, LIVER, S-9, AROCLOR 1254 (10%), Method: PREINCUBATION
  mutagenic call: inactive; negative
[14]
  mutagenic call: inactive; negative
Test System: AMES SALMONELLA TYPHIMURIUM, Strain/Indicator: TA1537, Metabolic Activation: RAT, LIVER, S-9, AROCLOR 1254 (10%), Method: PREINCUBATION
  mutagenic call: inactive; negative

## O=[N+]([O-])c1cccc(CBr)c1
[2]
  mutagenic call: inactive; negative
[7]
  mutagenic call: inactive; negative
Test System: AMES SALMONELLA TYPHIMURIUM, Strain/Indicator: TA100, Metabolic Activation: RAT, LIVER, S-9, AROCLOR 1254, Method: PREINCUBATION
  mutagenic call: inactive; negative

## O=[N+]([O-])c1cc(-c2ccccc2)ccc1O
[2]
  mutagenic call: inactive; negative
